Measured values published in article PMC11862924, “Phenylpyrazoles as Inhibitors of the m^6A RNA-Binding Protein YTHDF2” (JACS Au, 2025).
Entries after “also recorded” stand apart in the source; their conditions may differ.

Experiments:
[1] = target: T1, YTHDF1 (residues 375-552) (Homo sapiens, UniProt Q9BYJ9); experiment: FP assay with YTH domain of YTHDF1; format: binding; details: 0.5 µM YTHDF1, m6A RNA probe 4 nM
T1 construct: Plasmids of the YTH domain of YTHDF1 (residues 375–552); made in house; host or cells: Escherichia coli BL21(DE3); plasmid from the Zhou lab (Boston College)
T1 sequence (Q9BYJ9 375-552): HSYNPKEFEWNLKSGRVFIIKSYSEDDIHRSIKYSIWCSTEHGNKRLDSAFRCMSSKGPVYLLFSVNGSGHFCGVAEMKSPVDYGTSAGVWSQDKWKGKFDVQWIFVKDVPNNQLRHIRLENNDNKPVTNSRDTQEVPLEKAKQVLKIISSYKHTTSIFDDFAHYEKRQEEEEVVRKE
Experimental: (§1) The FP assay was performed in 384-well black plates (Corning no. 4514) with a total reaction volume of 15 μL. The final concentrations of protein (YTHDF2) and RNA were […], respectively, in a buffer containing 20 mM HEPES/KOH pH 7.5, 50 mM NaCl, 0.005% Tween 20, and 1 mM GSH (DTT). Compounds were incubated with protein, added FAM-m^6A RNA probe ([…](m6)ACUGUG) (purchased from IDT), and incubated at 4 °C for 30 min. The fluorescence polarization was measured using a plate reader (TECAN Spark) under an excitation wavelength of 485 nm and an emission wavelength of 535 nm with a bandwidth of 20 nm. […] The data were determined using GraphPad Prism 9.
Figure S8. The FP assay of YTHDF1 binding to the m6A RNA substrate. (A)The purification of YTHDF1 (residues 375-552), molecular weight: 21.9 kDa. (B) The anisotropy values using different concentrations of YTHDF1 with the m6A RNA probe (4 nM), which was used to decide the appropriate […] concentration for the FP (0.5 µM of YTHDF1, Z-factor: 0.65). (C) The […]
(§2) (1 picture or pasted object on this page, not shown here)

YTHDF2 = target: T2, YTHDF2 (Homo sapiens, UniProt Q9Y5A9); experiment: nanoDSF thermal shift assay; format: binding; details: for ΔTm at 5 µM: 5 μM compound; for ΔTm at 10 µM: 10 μM compound
T2 construct: A YTHDF2 YTH domain construct (residues 383–553) was subcloned to a pOPIN plasmid; made in house; host or cells: Escherichia coli BL21(DE3)
T2 sequence (Q9Y5A9 383-553): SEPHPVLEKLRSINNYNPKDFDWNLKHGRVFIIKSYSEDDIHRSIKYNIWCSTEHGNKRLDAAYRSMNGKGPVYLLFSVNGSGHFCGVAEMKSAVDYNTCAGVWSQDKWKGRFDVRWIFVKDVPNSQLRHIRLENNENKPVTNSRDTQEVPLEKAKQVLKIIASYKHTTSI
Experimental: NanoDSF was measured on a NanoTemper instrument (Prometheus NT.48). YTHDF2 protein was used at a concentration of 5 μM and incubated with 50, 25, 10, and 5 μM compound in buffer (100 mM KPi, pH 7.0, 250 mM NaCl, 10% Glycerol) for 50 min, in which 0.1% DMSO was used as the reference. The heat rate was set to 1 °C per minute, measured in a range between 20 and 90 °C.

JAR = experiment: CCK-8 proliferation assay, JAR; format: cell-based; details: Homo sapiens; CCK-8 kit assay, triplicates, 72 h; read-out: Anti-proliferation activity against cancer cells (IC50), JAR
Experimental: (§3) The JAR, K562, HCT116, and MOLM13 cells were seeded in 96-well plates (3000 cells/well). After being cultured overnight, compounds were added together with the DMSO treatment (0.1%) as a control. After 72 h, CCK-8 solution (Vazyme, A311) was added, and the cells were incubated at 37 °C for 4 h. The absorbance was measured at 450 nm using a plate reader (TECAN Spark).

[2] = target: T3, YTHDF2 (residues 383–553) (Homo sapiens, UniProt Q9Y5A9); experiment: Fluorescence polarization (FP) assay, YTHDF2–m6A RNA interaction; format: binding; details: for inhibition at 100 µM / inhibition at 100 μM in the FP assay: 100 μM compound, YTHDF2 (residues 383–553, 20 nM), FAM-labeled m6A RNA probe 5 nM, average ± SD; for inhibitory IC50 in FP (in words): YTHDF2–m6A RNA interaction, Figure S2
T3 construct: A YTHDF2 YTH domain construct (residues 383–553) was subcloned to a pOPIN plasmid; made in house; host or cells: Escherichia coli BL21(DE3)
T3 sequence (Q9Y5A9 383-553): T2 sequence (Q9Y5A9 383-553)
Method in brief: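 Read-out is fluorescence polarization (485 nm excitation, 535 nm emission) after 30 min at 4 °C. Buffer: 20 mM HEPES/KOH pH 7.5, 50 mM NaCl, 0.005% Tween 20, 1 mM GSH (DTT); YTHDF2 at 20 nM was exposed to compound first, then FAM-m6A RNA probe added at 5 nM.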

HCT116 = experiment: CCK-8 proliferation assay, HCT116; format: cell-based; details: Homo sapiens, HCT-116; CCK-8 kit assay, triplicates, 72 h; read-out: Anti-proliferation activity against cancer cells (IC50), HCT116
Experimental: as §3

YTHDF3 = target: T4, YTHDF3 (Homo sapiens, UniProt Q7Z739); experiment: EMSA with YTHDF3; format: binding; details: m6A RNA 20 nM
T4 construct: YTHDF3 (residues 391–585); made in house; host or cells: Escherichia coli BL21(DE3); plasmid from the Zhou lab (Boston College)
T4 sequence (Q7Z739 391-585): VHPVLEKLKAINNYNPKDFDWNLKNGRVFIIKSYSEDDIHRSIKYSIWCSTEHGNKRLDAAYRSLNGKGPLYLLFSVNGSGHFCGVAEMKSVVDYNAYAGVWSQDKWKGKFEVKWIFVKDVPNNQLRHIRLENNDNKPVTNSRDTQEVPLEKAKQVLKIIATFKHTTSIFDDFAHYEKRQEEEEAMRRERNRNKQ
Experimental: Compounds with different concentrations (3.1–100 μM) were incubated with 250 nM YTH-domain and 20 nM FAM-17mer-RNA in a buffer containing 20 mM HEPES, pH 8.2, 50 mM NaCl, 0.05% Triton X-100, and 5% v/v glycerol for 20 min at 4 °C. The samples were subjected to 12% native polyacrylamide gel and run at 120 V for 90 min at 4 °C using 0.5× TBE buffer. Gel imaging was performed in ChemiDoc MP (Bio-Rad), and Cy2/Alexa488 fluorescence was detected with a 1-min exposure time. Quantification of the gel image was performed by ImageJ.
Figure S13. The EMSA of YTHDF3 binding to the m 6A RNA substrate. (A) The YTHDF 3–RNA
complex formation in EMSA using m 6A RNA (20 nM) and different concentrations of YTHDF1 . (B)
as §2

[3] = target: T5, YTHDC1 (residues 345-509) (Homo sapiens, UniProt Q96MU7); experiment: FP assay with YTH domain of YTHDC1; format: binding; details: 2.0 µM YTHDC1
T5 construct: YTHDC1 (residues 345–509); made in house; host or cells: Escherichia coli BL21(DE3); plasmid from the Zhou lab (Boston College)
Experimental: as §1
Figure S10. The FP assay of YTHDC1 binding to the m6A RNA substrate. (A) The purification of YTHDC1 (residues 345-509), molecular weight: 19.9 kDa. (B) The anisotropy values using different concentrations of YTHDC1 with the m6A RNA probe (4 nM), which was used to decide the appropriate […] concentration for the FP (2.0 µM of YTHDC1, Z-factor: 0.54). (C) CK- […]
as §2

IC50 ([1]; read-out: IC50 against YTHDF1 in FP) [µM]	ΔTm at 5 µM (YTHDF2) [°C]	ΔTm at 10 µM (YTHDF2) [°C]	ΔTm at 25 µM (YTHDF2; 25 μM compound) [°C]	inhibition at 100 µM [2] [%]	inhibition at 100 μM in the FP assay [2] [%]	inhibitory IC50 in FP (in words) [2]	IC50 (HCT116) [µM]	inhibitory activity against YTHDF1 in FP (in words) [1]	Structure (SMILES)	IC50 (JAR) [µM]	inhibition of m6A RNA binding to YTHDF3 in EMSA (in words) (YTHDF3)	inhibitory activity against YTHDC1 in FP (in words) [3]
67.5	0.94 ± 0.58	1.56 ± 0.41	3.21	> 70	81.4 ± 10.7	low double-digit micromolar	> 50		O=C(O)c1ccc(-n2cc(C(=O)c3cc(Cl)cc(Cl)c3O)cn2)cc1 [CK-61]	> 50	did not show detectable inhibitory activity; also recorded: no activity	did not show detectable inhibitory activity
								inactive	O=C(O)c1ccc(-n2cc(C(=O)c3c(O)ccc4ccccc34)cn2)cc1 [CK-75]		did not show detectable inhibitory activity; also recorded: did not show detectable inhibition	did not show detectable inhibitory activity; also recorded: inactive
	0.96 ± 0.08	1.39 ± 0.37		> 70	70.3 ± 5.1	low double-digit micromolar	44 ± 6.8	inactive	Cc1cc(O)c(C(=O)c2cnn(-c3ccc(C(=O)O)cc3)c2)cc1Cl [CK-79]	32.1 ± 6.3	did not show detectable inhibitory activity; also recorded: did not show detectable inhibition	did not show detectable inhibitory activity; also recorded: inactive
